Type in all cases: biochemical
For one test, the target named is T1, FGFR1 (Homo sapiens, UniProt P11362).
T1 construct: purchased Life Technologies PV 3146
Nature of the test: Z'-LYTE kinase selectivity assay FGFR1. An excerpt: (§1) In order to compare the kinase selectivity of compounds (I) according to the invention with known prior art compounds the commercially provided SelectScreen® Kinase Profiling Service (Z′-LYTE®) was used (Life Technologies GmbH, Darmstadt, Germany) to investigate the ability of the compounds to inhibit a number of different, representatively selected human kinases. Further details regarding this service are available on the Life Technologies website at
(§2) The Z′-LYTE® biochemical assay employs a fluorescence-based, coupled-enzyme format and is based on the differential sensitivity of phosphorylated and non-phosphorylated peptides to proteolytic cleavage. The peptide substrate is labeled with two fluorophores—one at each end—that make up a FRET pair.
(§3) In the primary reaction, the kinase transfers the gamma-phosphate of ATP to a single tyrosine, serine or threonine residue in a synthetic FRET-peptide. In the secondary reaction, a site-specific protease recognizes and cleaves non-phosphorylated FRET-peptides. Phosphorylation of FRET-peptides suppresses cleavage by the Development Reagent. Cleavage disrupts FRET between the donor (i.e., coumarin) and acceptor (i.e., fluorescein) fluorophores on the FRET-peptide, whereas uncleaved, phosphorylated FRET-peptides maintain FRET. A ratiometric method, which calculates the ratio (the Emission Ratio) of donor emission to acceptor emission after excitation of the donor fluorophore at 400 nm, is used to quantitate reaction progress, as shown in the equation below.
(§4) The Test Compounds are screened at 1 μM.
The 2×FGFR1 (# PV 3146)/Tyr 04 (Z′-LYTE® Kinase Assay Kit—Tyrosine 4 Peptide, # PV 3193) mixture is prepared in 50 mM HEPES pH 7.5, 0.01% BRIJ-35, 10 mM MgCl2, 4 mM MnCl2, 1 mM EGTA, 2 mM DTT. The final 10 μL Kinase Reaction consists of 0.44-2.45 ng FGFR1 and 2 μM Tyr 04 in 50 mM HEPES pH 7.5, 0.01% BRIJ-35, 10 mM MgCl2, 2 mM MnCl2, 1 mM EGTA, 1 mM DTT. After the 1 hour Kinase Reaction incubation, 5 μL of a 1:64 dilution of Development Reagent B is added.

The next test concerns the target T2, CSNK2A1 (CK2 alpha 1) (Homo sapiens, UniProt P68400).
T2 construct: purchased Life Technologies PV 3248
Nature of the test: Z'-LYTE kinase selectivity assay CSNK2A1.
Excerpt: as §1, §2, §3, §4
The 2×CSNK2A1 (CK2 alpha 1) (# PV 3248)/Ser/Thr 11 (Z′-LYTE® Kinase Assay Kit—Ser/Thr 11 Peptide, # PV 3670) mixture is prepared in 50 mM HEPES pH 7.5, 0.01% BRIJ-35, 10 mM MgCl2, 1 mM EGTA. The final 10 μL Kinase Reaction consists of 0.68-25.7 ng CSNK2A1 (CK2 alpha 1) and 2 μM Ser/Thr 11 in 50 mM HEPES pH 7.5, 0.01% BRIJ-35, 10 mM MgCl2, 1 mM EGTA. After the 1 hour Kinase Reaction incubation, 5 μL of a 1:16 dilution of Development Reagent B is added.

Another test has as its target T3, MAPKAPK2 (Homo sapiens, UniProt P49137).
T3 construct: purchased Life Technologies PV 3317
Description: Z'-LYTE kinase selectivity assay MAPKAPK2.
Excerpt: as §1, §2, §3, §4
The 2×MAPKAPK2 (# PV 3317)/Ser/Thr 04 (Z′-LYTE® Kinase Assay Kit—Ser/Thr 4 Peptide, # PV 3177) mixture is prepared in 50 mM HEPES pH 7.5, 0.01% BRIJ-35, 10 mM MgCl2, 1 mM EGTA. The final 10 μL Kinase Reaction consists of 0.04-0.18 ng MAPKAPK2 and 2 μM Ser/Thr 04 in 50 mM HEPES pH 7.5, 0.01% BRIJ-35, 10 mM MgCl2, 1 mM EGTA. After the 1 hour Kinase Reaction incubation, 5 μL of a 1:1024 dilution of Development Reagent A is added.

The next test concerns the target T4, MAPK14 (p38 alpha) (Homo sapiens, UniProt Q16539).
T4 construct: purchased Life Technologies PV 3304
Nature of the test: Z'-LYTE kinase selectivity assay MAPK14.
Excerpt: as §1, §2, §3, §4
After the 1 hour Kinase Reaction incubation, 5 μL of a 1:1024 dilution of Development Reagent A is added.

A further test addresses T5, NEK2 (Homo sapiens, UniProt P51955).
T5 construct: purchased Life Technologies PV 3360
T5 sequence (P51955 1-445): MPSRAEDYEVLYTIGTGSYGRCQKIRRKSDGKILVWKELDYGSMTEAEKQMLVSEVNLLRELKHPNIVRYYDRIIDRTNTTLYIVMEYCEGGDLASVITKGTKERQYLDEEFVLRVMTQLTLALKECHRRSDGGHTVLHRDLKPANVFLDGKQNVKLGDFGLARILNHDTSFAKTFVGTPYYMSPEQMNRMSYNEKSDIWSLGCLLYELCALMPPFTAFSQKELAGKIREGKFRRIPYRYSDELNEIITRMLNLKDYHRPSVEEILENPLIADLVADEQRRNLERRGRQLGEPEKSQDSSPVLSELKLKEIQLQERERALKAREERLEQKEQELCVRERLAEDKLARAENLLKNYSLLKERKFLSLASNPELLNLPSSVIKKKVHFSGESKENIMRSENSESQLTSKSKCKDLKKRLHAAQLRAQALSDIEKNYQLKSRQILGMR
Nature of the test: Z'-LYTE kinase selectivity assay NEK2.
Excerpt: as §1, §2, §3, §4
The 2×NEK2 (# PV 3360)/Ser/Thr 07 (Z′-LYTE® Kinase Assay Kit—Ser/Thr 7 Peptide, # PV 3180) mixture is prepared in 50 mM HEPES pH 7.5, 0.01% BRIJ-35, 10 mM MgCl2, 1 mM EGTA. The final 10 μL Kinase Reaction consists of 0.5-5.4 ng NEK2 and 2 μM Ser/Thr 07 in 50 mM HEPES pH 7.5, 0.01% BRIJ-35, 10 mM MgCl2, 1 mM EGTA. After the 1 hour Kinase Reaction incubation, 5 μL of a 1:65000 dilution of Development Reagent A is added.

The target in another test is T6, PRKACA (PKA) (Homo sapiens, UniProt P17612).
T6 construct: purchased Life Technologies P 2912
Description: Z'-LYTE kinase selectivity assay PRKACA.
Excerpt: as §1, §2, §3, §4
The 2×PRKACA (PKA) (# P 2912)/Ser/Thr 01 (Z′-LYTE® Kinase Assay Kit—Ser/Thr 1 Peptide, # PV 3174) mixture is prepared in 50 mM HEPES pH 7.5, 0.01% BRIJ-35, 10 mM MgCl2, 1 mM EGTA. The final 10 μL Kinase Reaction consists of 0.03-0.15 ng PRKACA (PKA) and 2 μM Ser/Thr 01 in 50 mM HEPES pH 7.5, 0.01% BRIJ-35, 10 mM MgCl2, 1 mM EGTA. After the 1 hour Kinase Reaction incubation, 5 μL of a 1:4096 dilution of Development Reagent A is added.

T4 sequence (Q16539 whole entry): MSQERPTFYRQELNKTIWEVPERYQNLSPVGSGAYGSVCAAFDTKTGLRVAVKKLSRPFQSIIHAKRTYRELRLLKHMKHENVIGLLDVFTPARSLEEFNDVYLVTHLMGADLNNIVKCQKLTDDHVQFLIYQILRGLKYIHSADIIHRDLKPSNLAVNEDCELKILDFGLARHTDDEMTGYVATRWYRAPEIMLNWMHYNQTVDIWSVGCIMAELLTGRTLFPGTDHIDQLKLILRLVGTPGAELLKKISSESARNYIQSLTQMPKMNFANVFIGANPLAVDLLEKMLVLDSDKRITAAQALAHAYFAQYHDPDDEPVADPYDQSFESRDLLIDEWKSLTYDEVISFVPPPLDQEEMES
T3 sequence (P49137 whole entry): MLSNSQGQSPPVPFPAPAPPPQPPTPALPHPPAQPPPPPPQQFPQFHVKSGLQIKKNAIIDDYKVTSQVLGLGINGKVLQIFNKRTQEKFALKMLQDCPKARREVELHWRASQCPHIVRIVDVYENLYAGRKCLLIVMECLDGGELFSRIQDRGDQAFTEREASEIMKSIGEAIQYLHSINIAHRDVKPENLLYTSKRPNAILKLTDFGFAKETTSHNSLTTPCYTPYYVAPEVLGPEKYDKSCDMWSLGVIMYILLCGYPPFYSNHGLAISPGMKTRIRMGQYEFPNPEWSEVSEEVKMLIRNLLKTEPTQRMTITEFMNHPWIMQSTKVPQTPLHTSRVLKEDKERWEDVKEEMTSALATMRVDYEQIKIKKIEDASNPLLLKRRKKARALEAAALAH
T1 sequence (P11362 22-822): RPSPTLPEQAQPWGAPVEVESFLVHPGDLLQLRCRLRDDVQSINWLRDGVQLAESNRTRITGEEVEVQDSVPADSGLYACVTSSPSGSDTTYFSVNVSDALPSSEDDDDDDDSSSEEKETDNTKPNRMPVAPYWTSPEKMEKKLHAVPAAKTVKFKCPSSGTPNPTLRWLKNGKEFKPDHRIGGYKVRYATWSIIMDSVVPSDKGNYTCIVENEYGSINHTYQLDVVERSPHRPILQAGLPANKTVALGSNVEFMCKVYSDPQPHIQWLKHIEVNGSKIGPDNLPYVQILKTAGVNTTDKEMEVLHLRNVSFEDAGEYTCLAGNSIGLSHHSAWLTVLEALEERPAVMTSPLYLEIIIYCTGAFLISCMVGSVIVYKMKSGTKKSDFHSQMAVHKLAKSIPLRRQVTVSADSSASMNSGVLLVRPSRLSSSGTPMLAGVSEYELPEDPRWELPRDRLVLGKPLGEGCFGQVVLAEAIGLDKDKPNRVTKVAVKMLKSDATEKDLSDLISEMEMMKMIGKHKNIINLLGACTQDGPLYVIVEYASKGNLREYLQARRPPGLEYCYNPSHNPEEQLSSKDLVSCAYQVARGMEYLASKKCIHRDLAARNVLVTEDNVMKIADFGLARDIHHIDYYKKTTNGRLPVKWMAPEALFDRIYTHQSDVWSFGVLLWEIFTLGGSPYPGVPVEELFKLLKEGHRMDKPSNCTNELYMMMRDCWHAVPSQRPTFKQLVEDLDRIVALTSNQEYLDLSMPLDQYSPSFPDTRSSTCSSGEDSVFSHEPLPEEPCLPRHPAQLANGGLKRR
T2 sequence (P68400 whole entry): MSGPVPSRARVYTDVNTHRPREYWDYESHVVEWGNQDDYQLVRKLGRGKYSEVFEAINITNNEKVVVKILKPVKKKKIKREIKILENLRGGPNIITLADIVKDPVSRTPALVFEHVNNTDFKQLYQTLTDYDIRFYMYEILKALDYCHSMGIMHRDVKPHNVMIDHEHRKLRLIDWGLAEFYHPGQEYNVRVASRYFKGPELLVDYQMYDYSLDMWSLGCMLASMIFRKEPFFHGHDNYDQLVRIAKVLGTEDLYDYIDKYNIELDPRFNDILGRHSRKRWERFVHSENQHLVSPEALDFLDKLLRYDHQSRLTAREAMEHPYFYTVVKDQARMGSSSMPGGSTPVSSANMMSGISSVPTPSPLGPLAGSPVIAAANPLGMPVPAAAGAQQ

On to `CC(O)CN1CCN(CCn2ccc(Nc3ncc4c(n3)-c3c(nn(C)c3-c3ccccc3)C[C@H]4C)n2)CC1` (stereo partly drawn) [Compound I-7], for which the inhibition at 1 µM against FGFR1 turned out to be 34%; against CSNK2A1 (CK2 alpha 1), 8%; against MAPKAPK2 it was 5%; on MAPK14 (p38 alpha), 2%; at NEK2, 32%; at PRKACA (PKA), 16%.

Consider `C[C@@H]1Cc2nn(C)c(-c3ccccc3)c2-c2nc(Nc3ccn(CCN4CCN(C)CC4)n3)ncc21` [Compound I-1], for which the inhibition at 1 µM was 30% at FGFR1; 4% at CSNK2A1 (CK2 alpha 1); -3% on MAPKAPK2; -5% against MAPK14 (p38 alpha); 15% on NEK2; -5% against PRKACA (PKA).

Turning to `C[C@@H]1Cc2nn(C)c(-c3ccccc3)c2-c2nc(Nc3ccn(CCN4CCN(CC(C)(C)O)CC4)n3)ncc21` [Compound I-3], the inhibition at 1 µM is 34% against FGFR1; 3% on CSNK2A1 (CK2 alpha 1); 2% against MAPKAPK2; 2% against MAPK14 (p38 alpha); 29% against NEK2; 13% against PRKACA (PKA).

For `C[C@@H]1Cc2nn(C)c(-c3ccccc3)c2-c2nc(Nc3ccn(CCN4CCN(CC(=O)OC5CCOCC5)CC4)n3)ncc21` [Compound I-8], the inhibition at 1 µM at FGFR1 was 29%; against CSNK2A1 (CK2 alpha 1), 7%; at MAPKAPK2, 5%; against MAPK14 (p38 alpha) it was -5%; against NEK2, 22%; at PRKACA (PKA) it was 16%.

For the molecule `COCCN1CCN(CCn2ccc(Nc3ncc4c(n3)-c3c(nn(C)c3-c3ccccc3)C[C@H]4C)n2)CC1` [Compound I-11], the inhibition at 1 µM is 28% at FGFR1; 2% at CSNK2A1 (CK2 alpha 1); -2% at MAPKAPK2; 1% against MAPK14 (p38 alpha); 24% against NEK2; -3% against PRKACA (PKA).

As for `C[C@@H]1Cc2nn(C)c(-c3ccccc3)c2-c2nc(Nc3ccn(CCN4CCOCC4)n3)ncc21` [Compound I-2], the inhibition at 1 µM on FGFR1 is 40%; against CSNK2A1 (CK2 alpha 1), 10%; against MAPKAPK2, 1%; against MAPK14 (p38 alpha), 7%; against NEK2, 25%; against PRKACA (PKA), 22%.

As for `C[C@@H]1Cc2nn(C)c(-c3ccccc3)c2-c2nc(Nc3ccn(CCN4CCN(CC5CCCO5)CC4)n3)ncc21` (stereo partly drawn) [Compound I-9], the inhibition at 1 µM against FGFR1 came to 32%; on CSNK2A1 (CK2 alpha 1), 1%; on MAPKAPK2, 3%; on MAPK14 (p38 alpha), 4%; at NEK2, 32%; at PRKACA (PKA), 17%.

In general, inhibition refers to the drop in the measured response relative to a control, in per cent.

Values taken from patent publication US10414769B2, “5,8-dimethyl-9-phenyl-5,8-dihydro-6H-pyrazolo[3,4-h]quinazolin-2-yl)-(1H-pyrazol-3-yl)-amines as IGF-1R/IR inhibitors” (Boehringer Ingelheim International GmbH, priority 2015, dated 2019).
